# Experimental data published in patent US20240279220A1, “INDOLE COMPOUNDS AND METHODS OF USE” (Genzyme Corporation, priority 2021, published 2024).
# Tests used:
# NBD1/3D = assay: Aggregation analysis using differential static light scattering (DSLS), NBD1 thermal stability; assay type: binding, Human; details: ΔTagg versus DMSO control; compound at 100 μM
# Procedure, shortened: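 Purified NBD1 at 0.2 mg/ml in S200 buffer (pH 7.6, 2 mM ATP, 5 mM MgCl2, 1% glycerol) was heated with compound at 1 °C/min to 70 °C. Tagg taken from the light-scattering curve inflection point; ΔTagg = compound Tagg minus mean DMSO control Tagg.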
# CFTR = biological target: T1, CFTR (Homo sapiens, UniProt P13569, DEL508-508); assay: TECC24 recording of CFTR-mediated transepithelial chloride transport in ΔF508 homozygous CF-HBE cells; assay type: cell-based; details: 10 μM test agent, 48 hours incubation, AUC of forskolin-stimulated IEQ divided by vehicle AUC, primary CF-HBE cells
# T1 construct: Primary human bronchial epithelial cells from a ΔF508 homozygous CF donor; host or cells: primary human bronchial epithelial cells (CF-HBE), ΔF508 homozygous donor
# Protocol: The effects of a test agent on CFTR-mediated transepithelial chloride transport was measured using TECC24 recording analysis. Test agents were solubilized in DMSO. Solubilized test agents were mixed with incubation medium containing DMEM/F12, Ultroser G (2%; Crescent Chemical, catalog #67042), Hyclone Fetal Clone II (2%; GE Healthcare, catalog #SH30066.02), bovine brain extract (0.25%; Lonza, catalog #CC-4098), insulin (2.5 μg/mL), IL-13 (10 ng/mL), hydrocortisone (20 nM), transferrin (2.5 μg/mL), triiodothyronine (500 nM), ethanolamine (250 nM), epinephrine (1.5 μM), phosphoethanolamine (250 nM), and retinoic acid (10 nM). Primary human bronchial epithelial cells from a ΔF508 homozygous CF donor (CF-HBE cells; from University of North Carolina Cystic Fibrosis Tissue Procurement Center), grown on Transwell HTS 24-well cell culture inserts (Costar, catalog #3378), were exposed to test agents or controls dissolved in incubation medium. The CF-HBE cells were cultured at 36.5° C. for 48 hours before TECC24 recordings were performed in the presence or absence of test agent, a positive control or vehicle (DMSO).
# Following incubation, the transwell cell culture inserts containing the test agent or control-treated CF-HBE cells were loaded onto a TECC24 apparatus (TECC v7 or MTECC v2; EP Design) to record the transepithelial voltage (VT) and resistance (TEER) using 4 AgCl electrodes per well configured in current-clamp mode. The apical and basolateral bath solutions both contained (in mM) 140 NaCl, 5 KCl, 2 CaCl2, 1 MgCl2, 10 Hepes, and 10 glucose (adjusted to pH 7.4 with NaOH). To inhibit basal Na+ absorption, the ENaC inhibitor benzamil (10 μM) was added to the bath. Then, the adenylate cyclase activator, forskolin (10 μM), was added to the bath to activate CFTR. The forskolin-stimulated Cl— transport was halted by addition of CFTR inhibitor-172 (20 μM) to the bath at the end of the experiment to confirm specificity. VT and TEER recordings were digitally acquired at routine intervals using TECC or MTECC software (EP Design). VT and TEER were transformed into equivalent transpeithelial Cl— current (IEQ), and the Area Under the Curve (AUC) of the IEQ timecourse between forskolin and CFTR inhibitor-172 addition is generated using Excel (Microsoft). Efficacy is expressed as the ratio of the test agent AUC divided by vehicle AUC. EC50s based on AUC are generated using the non-linear regression log(agonist) vs. response function in Prism software (Graphpad) with HillSlope fixed=1.
# If a test agent increased the AUC of the forskolin-stimulated IEQ relative to vehicle in CF-HBE cells, and this increase was inhibited by CFTR inhibitor-172, then the test agent was considered a CFTR corrector.
# T1 sequence (P13569 with tags, fused parts or gaps DEL508-508): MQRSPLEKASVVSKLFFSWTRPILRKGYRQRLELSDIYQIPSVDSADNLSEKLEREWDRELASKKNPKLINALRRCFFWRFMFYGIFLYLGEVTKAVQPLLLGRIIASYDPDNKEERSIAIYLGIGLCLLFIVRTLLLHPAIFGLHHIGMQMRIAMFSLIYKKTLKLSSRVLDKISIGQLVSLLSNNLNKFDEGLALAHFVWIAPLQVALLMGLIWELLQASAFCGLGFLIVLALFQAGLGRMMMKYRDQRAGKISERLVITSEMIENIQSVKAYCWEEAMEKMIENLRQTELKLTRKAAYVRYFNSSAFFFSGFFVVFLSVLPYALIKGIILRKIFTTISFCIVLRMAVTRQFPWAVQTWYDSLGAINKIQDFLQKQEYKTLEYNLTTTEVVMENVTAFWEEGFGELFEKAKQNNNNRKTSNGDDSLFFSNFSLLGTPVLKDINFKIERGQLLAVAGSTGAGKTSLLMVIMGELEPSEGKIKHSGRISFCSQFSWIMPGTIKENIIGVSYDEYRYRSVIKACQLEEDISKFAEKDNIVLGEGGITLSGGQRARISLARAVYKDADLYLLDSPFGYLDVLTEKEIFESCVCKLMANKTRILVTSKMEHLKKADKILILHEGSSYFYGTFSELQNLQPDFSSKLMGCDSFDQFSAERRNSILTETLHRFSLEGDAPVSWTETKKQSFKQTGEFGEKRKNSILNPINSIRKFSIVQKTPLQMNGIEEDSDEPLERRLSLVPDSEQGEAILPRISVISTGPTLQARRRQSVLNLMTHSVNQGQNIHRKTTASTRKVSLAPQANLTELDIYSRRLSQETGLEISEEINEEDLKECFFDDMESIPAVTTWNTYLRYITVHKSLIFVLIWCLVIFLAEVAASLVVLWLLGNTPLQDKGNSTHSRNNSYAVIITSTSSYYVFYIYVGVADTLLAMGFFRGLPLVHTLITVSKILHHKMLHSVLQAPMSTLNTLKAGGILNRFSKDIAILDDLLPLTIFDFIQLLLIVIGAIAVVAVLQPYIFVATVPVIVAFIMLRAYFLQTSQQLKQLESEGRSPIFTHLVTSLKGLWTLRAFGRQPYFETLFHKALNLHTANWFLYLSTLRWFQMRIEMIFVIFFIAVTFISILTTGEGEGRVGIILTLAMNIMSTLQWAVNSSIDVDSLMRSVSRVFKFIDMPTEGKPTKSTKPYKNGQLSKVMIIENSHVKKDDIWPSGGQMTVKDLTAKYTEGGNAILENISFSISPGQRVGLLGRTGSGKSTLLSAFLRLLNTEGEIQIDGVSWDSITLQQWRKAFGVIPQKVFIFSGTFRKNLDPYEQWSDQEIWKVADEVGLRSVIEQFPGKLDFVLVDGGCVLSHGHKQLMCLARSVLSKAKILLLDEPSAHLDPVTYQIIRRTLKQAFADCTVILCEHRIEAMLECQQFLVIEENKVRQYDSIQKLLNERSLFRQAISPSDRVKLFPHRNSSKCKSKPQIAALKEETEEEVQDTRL
Compound,DSLS NBD1/3D Human Stability delta-T (° C.) @ 100 (μM) (NBD1/3D),TECC24 @ 10 μM over DMSO (AUC fold over DMSO) (CFTR)
"C[C@H]1C[C@](c2cccc(CCC(=O)O)c2)(c2c[nH]c(-c3cc(Oc4c(F)cc5[nH]ccc5c4F)ccc3F)n2)CCO1 (racemic) [Example 155, 3-(3-((2S)-4-(2-(5-((4,6-difluoro-1H-indol-5-yl)oxy)-2-fluorophenyl)-1H-imidazol-5-yl)-2-methyltetrahydro-2H-pyran-4-yl)phenyl)propanoic acid]",A (A: T ≥ 10° C.),A (“A” refers to AUC @10 uM >= 12)
"Cc1c(Oc2ccc(F)c(-c3ncc([C@]4(c5cccc(CCC(=O)O)c5)C[C@H](O)CO4)[nH]3)c2)c(F)cc2[nH]ccc12 (racemic) [Example 274, rac-3-(3-((2r,4s)-2-(2-(2-Fluoro-5-((6-fluoro-4-methyl-1H-indol-5-yl)oxy)phenyl)-1H-imidazol-5-yl)-4-hydroxytetrahydrofuran-2-yl)phenyl)propanoic acid]",A (A: T ≥ 10° C.),C (“C” refers to AUC @ 10 uM <= 4)
"CC(c1ccn(-c2cccc(Oc3c(F)cc4[nH]ccc4c3S(C)(=O)=O)c2)n1)c1cccc(CCC(=O)O)c1F (single isomer, unassigned) [Example 23B, 3-(2-fluoro-3-(1-(1-(3-((6-fluoro-4-(methylsulfonyl)-1H-indol-5-yl)oxy)phenyl)-1H-pyrazol-3-yl)ethyl)phenyl)propanoic acid]",A (A: T ≥ 10° C.),A (“A” refers to AUC @10 uM >= 12)
"CC(c1cccc(CCC(=O)O)c1F)n1ccc(-c2cc(Oc3c(F)cc4[nH]ccc4c3S(C)(=O)=O)ccc2F)n1 (single isomer, unassigned) [Example 41B, 3-(2-fluoro-3-(1-(3-(2-fluoro-5-((6-fluoro-4-(methylsulfonyl)-1H-indol-5-yl)oxy)phenyl)-1H-pyrazol-1-yl)ethyl)phenyl)propanoic acid]",A (A: T ≥ 10° C.),A (“A” refers to AUC @10 uM >= 12)
"[2H]C([2H])([2H])C(C#N)(c1cccc(CCC(=O)O)c1)c1cnc(-c2cc(Oc3c(F)c(F)c4[nH]ccc4c3F)ccc2F)[nH]1 (single isomer, unassigned) [Example 64A, 3-(3-(1-Cyano-1-(2-(2-fluoro-5-((4,6,7-trifluoro-1H-indol-5-yl)oxy)phenyl)-1H-imidazol-5-yl)ethyl-2,2,2-d3)phenyl)propanoic acid]",B (B: 5-10° C.),B (“B” refers to AUC @10 uM between 4-12)
"[2H]C([2H])([2H])C(C#N)(c1cccc(CCC(=O)O)c1)c1cnc(-c2cc(Oc3c(F)c(F)c4[nH]ccc4c3F)ccc2F)[nH]1 (single isomer, unassigned) [Example 64B, 3-(3-(1-Cyano-1-(2-(2-fluoro-5-((4,6,7-trifluoro-1H-indol-5-yl)oxy)phenyl)-1H-imidazol-5-yl)ethyl-2,2,2-d3)phenyl)propanoic acid]",B (B: 5-10° C.),A (“A” refers to AUC @10 uM >= 12)
"[2H]c1c[nH]c2c(F)c(F)c(Oc3ccc(F)c(-c4nc(C(C#N)(c5cc(F)cc(CCC(=O)O)c5)C([2H])([2H])[2H])c[nH]4)c3)c(F)c12 (single isomer, unassigned) [Example 67B, 3-(3-(1-cyano-1-(2-(2-fluoro-5-((4,6,7-trifluoro-1H-indol-5-yl-3-d)oxy)phenyl)-1H-imidazol-4-yl)ethyl-2,2,2-d3)-5-fluorophenyl)propanoic acid]",B (B: 5-10° C.),C (“C” refers to AUC @ 10 uM <= 4)
"CC(c1c[nH]c(-c2cc(Oc3c(F)cc4[nH]ccc4c3S(C)(=O)=O)ccc2F)n1)c1cccc(CC(=O)O)c1F (single isomer, unassigned) [Example 84, 2-(2-fluoro-3-(1-(2-(2-fluoro-5-((6-fluoro-4-(methylsulfonyl)-1H-indol-5-yl)oxy)phenyl)-1H-imidazol-4-yl)ethyl)phenyl)acetic acid]",A (A: T ≥ 10° C.),B (“B” refers to AUC @10 uM between 4-12)
"CC(C)(C)NCc1c(Oc2cccc(-c3ncc(C(O)c4cccc(CCC(=O)O)c4)[nH]3)c2)ccc2[nH]ccc12 (stereo not drawn) [Example 263, 3-(3-((2-(3-((4-((tert-Butylamino)methyl)-1H-indol-5-yl)oxy)phenyl)-1H-imidazol-5-yl)(hydroxy)methyl)phenyl)propanoic acid]",A (A: T ≥ 10° C.),–
"COC(=O)CCc1cccc(C(C)(O)c2cnc(-c3cccc(Oc4ccc5[nH]ccc5c4CNC(C)=O)c3)[nH]2)c1 (stereo not drawn) [Example 264, Methyl 3-(3-(1-(2-(3-((4-(acetamidomethyl)-1H-indol-5-yl)oxy)phenyl)-1H-imidazol-5-yl)-1-hydroxyethyl)phenyl)propanoate]",A (A: T ≥ 10° C.),–
"O=C(O)CCc1cccc(Cc2cnc(-c3cc(Oc4c(F)cc5[nH]ccc5c4CNCC(F)(F)F)ccc3F)[nH]2)c1 [Example 265, 3-(3-((2-(2-Fluoro-5-((6-fluoro-4-(((2,2,2-trifluoroethyl)amino)methyl)-1H-indol-5-yl)oxy)phenyl)-1H-imidazol-5-yl)methyl)phenyl)propanoic acid]",B (B: 5-10° C.),–
"O=C(O)CCc1cccc(C(O)c2cnc(-c3cccc(Oc4c(F)cc5[nH]ccc5c4-c4ccn[nH]4)c3)[nH]2)c1 (stereo not drawn) [Example 267, 3-(3-((2-(3-((6-Fluoro-4-(1H-pyrazol-5-yl)-1H-indol-5-yl)oxy)phenyl)-1H-imidazol-5-yl)(hydroxy)methyl)phenyl)propanoic acid]",B (B: 5-10° C.),–
"OCCCc1cccc(Cc2cnc(-c3cc(Oc4c(F)cc5[nH]ccc5c4F)ccc3F)[nH]2)c1F [Example 268, 3-(3-((2-(5-((4,6-Difluoro-1H-indol-5-yl)oxy)-2-fluorophenyl)-1H-imidazol-5-yl)methyl)-2-fluorophenyl)propan-1-ol]",C (C: ≤5° C.),–
"O=P(O)(O)OCCCc1cccc(Cc2cnc(-c3cc(Oc4c(F)cc5[nH]ccc5c4F)ccc3F)[nH]2)c1F [Example 269, 3-(3-((2-(5-((4,6-Difluoro-1H-indol-5-yl)oxy)-2-fluorophenyl)-1H-imidazol-5-yl)methyl)-2-fluorophenyl)propyl dihydrogen phosphate]",C (C: ≤5° C.),–
"O=C(O)CCc1cccc(Cc2cnc(-c3cccc(Oc4c(F)cc5[nH]ccc5c4-c4ccn[nH]4)c3)[nH]2)c1 [Example 271, 3-(3-((2-(3-((6-Fluoro-4-(1H-pyrazol-5-yl)-1H-indol-5-yl)oxy)phenyl)-1H-imidazol-4-yl)methyl)phenyl)propanoic acid]",B (B: 5-10° C.),–
"COc1cc(F)c(-c2ncc(C(C)(O)c3cccc(CCC(=O)O)c3)[nH]2)cc1Oc1c(F)cc2[nH]ccc2c1C (stereo not drawn) [Example 281, 3-(3-(1-(2-(2-fluoro-5-((6-fluoro-4-methyl-1H-indol-5-yl)oxy)-4-methoxyphenyl)-1H-imidazol-5-yl)-1-hydroxyethyl)phenyl) propanoic acid]",B (B: 5-10° C.),–
